This is an account of results in patent publication US20250346643A1, “TROPOMYOSIN KINASE RECEPTOR (TRK) LIGANDS AS THERAPEUTICS TO SUPPORT LIVER REGENERATION” (Vanderbilt University, priority 2024, published 2025).

One assay concerns CCND1. The experiment in a line: Western blot of CCND1 in HepG2 cell lysates. Type of assay: cell-based, human. The method, then: Human HepG2 and mouse AML12 cells were grown in 6-well plates. Cells were treated with NTF3 (20 ng/ml) purchased from STEMCELL technologies, Vancouver, Canada (cat. 78074), R&D Systems, Minneapolis, MN (267-N3), Gibco, Waltham, MA (PHC7036) and/or Loxo-195 (5-10 nM) (Selleckchem, Houston, TX; S8636) in complete growth media without L-glutamine for 2 hours. Lyophilized NTF3 was solubilized with sterile filtered PBS supplemented with 0.1% BSA, aliquoted and stored at −80° C. until use. […] HepG2 and AML12 cells were collected on ice in PBS, centrifuged for 10 sec […] cell pellet homogenized in RIPA buffer containing inhibitors (Roche, Basel, Switzerland; complete Mini proteinase inhibitor, 1×HALT phosphatase inhibitors, Thermo Scientific, Waltham, MA; cat. 78428). Cell lysates were sonicated and centrifuged for 10 min at 18,800×g. Protein concentration of supernatants were determined by Direct Detect Spectrophotometer (MilliporeSigma, Burlington, MA).
For immunoblot analysis, 30-50 μg of protein diluted in LSD sample buffer (Invitrogen, Waltham, MA) were analyzed per SDS-PAGE (NuPAGE™, Invitrogen, Waltham, MA) using MOPS buffer or MES buffer (Invitrogen, Waltham, MA). Gels were stained with Coomassie (Bio-Safe Coomassie G-250 Stain, Bio-Rad, Hercules, CA) and transferred onto PVDF membranes using semi-dry blotting (Trans-Blot SD, Bio-Rad, Hercules, CA). Images were visualized on an Amersham™ Imager 680 (Cytiva, Marlborough, MA). Semi-quantitative band densitometry was performed using ImageJ software (version 1.53).
For orientation: A western blot detects proteins with antibodies after separation by electrophoresis.

In a further assay the test system is mTORC1. The experiment in a line: Immunoblotting of HDOs for P-S6RP and P-P70S6K (mTORC1 activation). Type of assay: cell-based, human. To be noted: HDO, serum free and glutamine free William's E medium (FIG. 20A-C). The method, then:
Human ductal organoids. The normal human liver tissue was obtained through the Cooperative Human Tissue Network (CHTN) at Vanderbilt University Medical Center. The liver was cut into very small pieces in liver digestion medium (Gibco, Waltham, MA; 17703-034). The cell suspension was filtered through a 100-μm cell strainer. The flow through was then centrifuged for 2 min at 100 g, 4° C., and the cell pellet resuspended in ice-cold DMEM (Gibco, Waltham, MA; 11885-084, supplemented by 5% FBS) and centrifuged for 2 min at 300 g. The cell pellet was gently resuspended in Matrigel® (Corning, Corning, NY; 356231) and a […] dome plated in a 24-well plate. The plate was incubated for 10-15 min at 37° C. After solidifying, complete HepatiCult™ Organoid Initiation Medium (OIM) (STEMCELL Technologies, Vancouver, Canada; 100-0384) was added. For passaging, the Matrigel dome was dissociated using TrypLE (Thermo Fisher Scientific, Waltham, MA; 12604013) and incubated at 37° C. for 5 mins. Organoids were washed by resuspending in advanced DMEM/F12 and consecutive resuspension of the organoid pellet. Organoids were resuspended at a 1:10 dilution in Matrigel® and cultured in complete HepatiCult™ Organoid Growth Medium (OGM) (STEMCELL Technologies, Vancouver, Canada; 100-0385) for organoid expansion. For hepatocytic differentiation of hepatic ductal organoids, culture medium was changed to complete HepatiCult™ Organoid Differentiation Medium (ODM) (STEMCELL Technologies, 100-0383) 4 days after passaging. Vehicle, NTF3, BDNF, HGF (20 ng/ml final concentration) or Taletrectinib (Fisher Scientific, Waltham, MA; 502030245, final concentration 10 nM) or torin2 (Fisher Scientific, Waltham, MA; s2817, final concentration 25 nM) were diluted in William's E (without L-glutamine) and added to organoids.
Immunoblotting. HDOs and mpPHH were homogenized in RIPA buffer containing proteinase inhibitors (Roche, Basel, Switzerland; cOmplete™ Mini protease inhibitor, 2 tab/10 ml buffer) and 1×HALT phosphatase inhibitors (Thermo Fisher Scientific, Waltham, MA; catalog no. 78428). Lysates were sonicated and then centrifuged for 10 min at 18,800 g. Protein concentration of supernatants was determined by Direct Detect Spectrophotometer (MilliporeSigma, Burlington, MA). HDOs were treated with growth factors as described above. Lyophilized NTF3 was solubilized with sterile-filtered PBS supplemented with 0.1% BSA, aliquoted, and stored at −80° C. until use. […] HDOs and mpPHH were collected on ice in PBS and centrifuged for 10 s, and the cell pellet was homogenized in RIPA buffer containing inhibitors (Roche, Basel, Switzerland; cOmplete™ Mini protease inhibitor, 1×HALT phosphatase inhibitors, Thermo Fisher Scientific, Waltham, MA; catalog no. 78428). Cell lysates were sonicated and centrifuged for 10 min at 18,800 g. The protein concentration of supernatants was determined by a Direct Detect® spectrophotometer (MilliporeSigma, Burlington, MA). For immunoblot analysis, 10 to 50 μg of protein diluted in […] sample buffer (Invitrogen, Waltham, MA) were analyzed per SDS-polyacrylamide gel electrophoresis (NuPAGE™, Invitrogen, Waltham, MA) using Mops buffer or MES buffer (Invitrogen, Waltham, MA). […] Semi-quantitative band densitometry was performed using ImageJ software (version 1.53).

For the substance “NTF3: neurotrophin-3, recombinant protein; HSC-derived hepatocyte mitogen, ligand of TRKA, TRKB, TRKC”, the “CCND1 amounts, NTF3 from three different vendors” value with CCND1 (HepG2 (FIG. 9K-L)) is recorded as “CCND1 amounts increased”. The CCND1 abundance result in the assay on CCND1 (HepG2, NTF3 20 ng/ml, 2 hours (FIG. 8I-J)) is “increased CCND1 abundance”. For the same substance, in the assay on mTORC1, the “phosphorylation of P-p70S6 kinase and P-S6 ribosomal protein (S6RP)” value is on record as “significantly increased phosphorylation”.
